{
  "source": "paper PMC11243598",
  "about": "“Inhibition of Monoamine Oxidases by Pyridazinobenzylpiperidine Derivatives” (Molecules, 2024)",
  "key": {"MAO-B": {"molecular_target": "T1, MAO-B (Homo sapiens, UniProt P27338)", "T1 sequence (P27338 1-520)": "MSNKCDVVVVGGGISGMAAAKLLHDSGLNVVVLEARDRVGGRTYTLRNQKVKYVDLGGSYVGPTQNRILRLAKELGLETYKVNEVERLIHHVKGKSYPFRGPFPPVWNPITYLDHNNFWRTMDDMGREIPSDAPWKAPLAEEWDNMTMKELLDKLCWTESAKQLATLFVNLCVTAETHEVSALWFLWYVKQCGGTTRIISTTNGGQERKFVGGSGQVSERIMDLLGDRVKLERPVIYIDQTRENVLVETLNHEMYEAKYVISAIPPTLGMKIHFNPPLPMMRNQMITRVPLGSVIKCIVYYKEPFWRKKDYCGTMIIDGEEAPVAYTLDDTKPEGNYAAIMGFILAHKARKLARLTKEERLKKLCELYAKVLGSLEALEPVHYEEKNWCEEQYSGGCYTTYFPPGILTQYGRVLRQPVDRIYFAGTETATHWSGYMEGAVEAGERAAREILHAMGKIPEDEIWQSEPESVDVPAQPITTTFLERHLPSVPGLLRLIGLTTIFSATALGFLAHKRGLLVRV", "test": "biochemical", "settings": "for remaining activity at 10 µM: read-out: Residual Activity at 10 µM (%) MAO-B"}, "hMAO-A": {"molecular_target": "T2, hMAO-A (Homo sapiens, UniProt P21397)", "T2 sequence (P21397 1-527)": "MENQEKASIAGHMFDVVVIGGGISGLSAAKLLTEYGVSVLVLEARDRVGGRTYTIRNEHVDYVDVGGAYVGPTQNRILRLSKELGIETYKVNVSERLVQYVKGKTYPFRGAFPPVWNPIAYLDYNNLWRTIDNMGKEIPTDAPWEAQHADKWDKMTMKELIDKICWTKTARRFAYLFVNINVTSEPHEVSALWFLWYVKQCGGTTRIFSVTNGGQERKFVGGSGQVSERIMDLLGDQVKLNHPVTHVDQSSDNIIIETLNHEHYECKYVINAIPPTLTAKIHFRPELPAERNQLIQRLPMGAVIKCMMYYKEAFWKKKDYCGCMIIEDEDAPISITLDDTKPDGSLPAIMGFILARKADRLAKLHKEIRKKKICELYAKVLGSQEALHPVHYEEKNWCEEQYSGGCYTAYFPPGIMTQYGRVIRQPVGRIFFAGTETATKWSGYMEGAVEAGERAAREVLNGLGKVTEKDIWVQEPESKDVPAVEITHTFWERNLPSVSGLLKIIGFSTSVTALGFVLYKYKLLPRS", "test": "Inhibition of recombinant hMAO-A, kynuramine substrate, continuous absorbance method", "settings": "for remaining activity at 10 µM: read-out: Residual Activity at 10 µM (%) MAO-A"}},
  "data": [
    {"smiles": "Cc1cccc(C=NNC(=O)Cn2nc(N3CCC(Cc4ccccc4)CC3)ccc2=O)c1", "note": "[Compound S10, N′-3-methylbenzylidene-2-(3-(4-benzylpiperidin-1-yl)-6-oxopyridazin-1(6H)-yl)acetohydrazide]", "values": [
      {"measurement": "IC50", "setting": "MAO-B", "result": "3.549 ± 0.001", "unit": "µM"},
      {"measurement": "remaining activity at 10 µM", "setting": "MAO-B", "result": "9.31 ± 2.04", "unit": "%"},
      {"measurement": "IC50", "setting": "hMAO-A", "result": "4.53 ± 0.424", "unit": "µM"},
      {"measurement": "remaining activity at 10 µM", "setting": "hMAO-A", "result": "16.1 ± 4.26", "unit": "%"}
    ]},
    {"smiles": "COc1cccc(C=NNC(=O)Cn2nc(N3CCC(Cc4ccccc4)CC3)ccc2=O)c1OC", "note": "[Compound S22, N′-2,3-dimethoxybenzylidene-2-(3-(4-benzylpiperidin-1-yl)-6-oxopyridazin-1(6H)-yl)acetohydrazide]", "values": [
      {"measurement": "IC50", "setting": "MAO-B", "result": "7.87 ± 0.208", "unit": "µM"},
      {"measurement": "remaining activity at 10 µM", "setting": "MAO-B", "result": "39 ± 2.83", "unit": "%"},
      {"measurement": "IC50", "setting": "hMAO-A", "result": "5.94 ± 0.264", "unit": "µM"},
      {"measurement": "remaining activity at 10 µM", "setting": "hMAO-A", "result": "-8.5 ± 2.12", "unit": "%"}
    ]},
    {"smiles": "COc1ccccc1C=NNC(=O)Cn1nc(N2CCC(Cc3ccccc3)CC2)ccc1=O", "note": "[Compound S19, N′-2-methoxybenzylidene-2-(3-(4-benzylpiperidin-1-yl)-6-oxopyridazin-1(6H)-yl)acetohydrazide]", "values": [
      {"measurement": "remaining activity at 10 µM", "setting": "MAO-B", "result": "20.8 ± 1.76", "unit": "%"},
      {"measurement": "IC50", "setting": "hMAO-A", "result": "4.66 ± 0.307", "unit": "µM"},
      {"measurement": "remaining activity at 10 µM", "setting": "hMAO-A", "result": "7.83 ± 2.05", "unit": "%"}
    ]},
    {"smiles": "N#Cc1cccc(C=NNC(=O)Cn2nc(N3CCC(Cc4ccccc4)CC3)ccc2=O)c1", "note": "[Compound S17, N′-3-cyanobenzylidene-2-(3-(4-benzylpiperidin-1-yl)-6-oxopyridazin-1(6H)-yl)acetohydrazide]", "values": [
      {"measurement": "IC50", "setting": "MAO-B", "result": "3.1 ± 0.088", "unit": "µM"},
      {"measurement": "remaining activity at 10 µM", "setting": "MAO-B", "result": 0, "unit": "%"},
      {"measurement": "IC50", "setting": "hMAO-A", "result": "6.28 ± 0.306", "unit": "µM"},
      {"measurement": "remaining activity at 10 µM", "setting": "hMAO-A", "result": "9.98 ± 0.57", "unit": "%"}
    ]},
    {"smiles": "O=C(Cn1nc(N2CCC(Cc3ccccc3)CC2)ccc1=O)NN=Cc1ccccc1Br", "note": "[Compound S3, N′-2-bromobenzylidene-2-(3-(4-benzylpiperidin-1-yl)-6-oxopyridazin-1(6H)-yl)acetohydrazide]", "values": [
      {"measurement": "IC50", "setting": "MAO-B", "result": "4.75 ± 0.155", "unit": "µM"},
      {"measurement": "remaining activity at 10 µM", "setting": "MAO-B", "result": "50.59 ± 0.01", "unit": "%"},
      {"measurement": "IC50", "setting": "hMAO-A", "result": "4.13 ± 1.12", "unit": "µM"},
      {"measurement": "remaining activity at 10 µM", "setting": "hMAO-A", "result": "34.4 ± 1.93", "unit": "%"}
    ]},
    {"smiles": "O=C(Cn1nc(N2CCC(Cc3ccccc3)CC2)ccc1=O)NN=Cc1ccc([N+](=O)[O-])cc1", "note": "[Compound S14]", "values": [
      {"measurement": "IC50", "setting": "MAO-B", "result": "3.62 ± 0.54", "unit": "µM"},
      {"measurement": "remaining activity at 10 µM", "setting": "MAO-B", "result": "39.8 ± 4.14", "unit": "%"},
      {"measurement": "IC50", "setting": "hMAO-A", "result": "24.2 ± 0.283", "unit": "µM"},
      {"measurement": "remaining activity at 10 µM", "setting": "hMAO-A", "result": "67.1 ± 5.19", "unit": "%"}
    ]},
    {"smiles": "CN(C)c1ccc(C=NNC(=O)Cn2nc(N3CCC(Cc4ccccc4)CC3)ccc2=O)cc1", "note": "[Compound S13]", "values": [
      {"measurement": "IC50", "setting": "MAO-B", "result": "6.48 ± 0.559", "unit": "µM"},
      {"measurement": "remaining activity at 10 µM", "setting": "MAO-B", "result": "37.6 ± 2.5", "unit": "%"},
      {"measurement": "IC50", "setting": "hMAO-A", "result": "5.63 ± 1.18", "unit": "µM"},
      {"measurement": "remaining activity at 10 µM", "setting": "hMAO-A", "result": "36.1 ± 1.01", "unit": "%"}
    ]},
    {"smiles": "O=C(Cn1nc(N2CCC(Cc3ccccc3)CC2)ccc1=O)NN=Cc1ccc(Br)cc1", "note": "[Compound S2]", "values": [
      {"measurement": "IC50", "setting": "MAO-B", "result": "10.7 ± 0.565", "unit": "µM"},
      {"measurement": "remaining activity at 10 µM", "setting": "MAO-B", "result": "56.5 ± 4.99", "unit": "%"},
      {"measurement": "IC50", "setting": "hMAO-A", "result": "10.9 ± 1.19", "unit": "µM"},
      {"measurement": "remaining activity at 10 µM", "setting": "hMAO-A", "result": "54.8 ± 3.1", "unit": "%"}
    ]},
    {"smiles": "O=C(Cn1nc(N2CCC(Cc3ccccc3)CC2)ccc1=O)NN=Cc1ccc(Cl)cc1", "note": "[Compound S6]", "values": [
      {"measurement": "IC50", "setting": "MAO-B", "result": "4.95 ± 0.353", "unit": "µM"},
      {"measurement": "remaining activity at 10 µM", "setting": "MAO-B", "result": "26.7 ± 3.83", "unit": "%"},
      {"measurement": "IC50", "setting": "hMAO-A", "result": "7.14 ± 1.07", "unit": "µM"},
      {"measurement": "remaining activity at 10 µM", "setting": "hMAO-A", "result": "42.2 ± 3.22", "unit": "%"}
    ]},
    {"smiles": "CCc1ccc(C=NNC(=O)Cn2nc(N3CCC(Cc4ccccc4)CC3)ccc2=O)cc1", "note": "[Compound S15, N′-4-ethylbenzylidene-2-(3-(4-benzylpiperidin-1-yl)-6-oxopyridazin-1(6H)-yl)acetohydrazide]", "values": [
      {"measurement": "IC50", "setting": "MAO-B", "result": "5.34 ± 0.667", "unit": "µM"},
      {"measurement": "remaining activity at 10 µM", "setting": "MAO-B", "result": "54.4 ± 4.05", "unit": "%"},
      {"measurement": "IC50", "setting": "hMAO-A", "result": "3.69 ± 0.655", "unit": "µM"},
      {"measurement": "remaining activity at 10 µM", "setting": "hMAO-A", "result": "30.1 ± 8.1", "unit": "%"}
    ]},
    {"smiles": "N#Cc1ccc(C=NNC(=O)Cn2nc(N3CCC(Cc4ccccc4)CC3)ccc2=O)cc1", "note": "[Compound S18, N′-4-cyanobenzylidene-2-(3-(4-benzylpiperidin-1-yl)-6-oxopyridazin-1(6H)-yl)acetohydrazide]", "values": [
      {"measurement": "IC50", "setting": "MAO-B", "result": "3.51 ± 0.811", "unit": "µM"},
      {"measurement": "remaining activity at 10 µM", "setting": "MAO-B", "result": "48.37 ± 0.08", "unit": "%"},
      {"measurement": "IC50", "setting": "hMAO-A", "result": "7.19 ± 0.201", "unit": "µM"},
      {"measurement": "remaining activity at 10 µM", "setting": "hMAO-A", "result": "35.9 ± 2.54", "unit": "%"}
    ]},
    {"smiles": "C#CCN(C)Cc1ccccc1", "note": "[Pargyline, reference compound]", "values": [
      {"measurement": "remaining activity at 10 µM", "setting": "hMAO-A", "result": "19.9 ± 6.82", "unit": "%"}
    ]},
    {"smiles": "COc1cc(OC)c(C=NNC(=O)Cn2nc(N3CCC(Cc4ccccc4)CC3)ccc2=O)c(OC)c1", "note": "[Compound S21, N′-2,4,6-trimethoxybenzylidene-2-(3-(4-benzylpiperidin-1-yl)-6-oxopyridazin-1(6H)-yl)acetohydrazide]", "values": [
      {"measurement": "IC50", "setting": "MAO-B", "result": "6.12 ± 0.662", "unit": "µM"},
      {"measurement": "remaining activity at 10 µM", "setting": "MAO-B", "result": "48.5 ± 6.43", "unit": "%"},
      {"measurement": "IC50", "setting": "hMAO-A", "result": "7.47 ± 0.344", "unit": "µM"},
      {"measurement": "remaining activity at 10 µM", "setting": "hMAO-A", "result": "32.8 ± 2.18", "unit": "%"}
    ]},
    {"smiles": "COc1cccc(C=NNC(=O)Cn2nc(N3CCC(Cc4ccccc4)CC3)ccc2=O)c1", "note": "[Compound S11]", "values": [
      {"measurement": "IC50", "setting": "MAO-B", "result": "1.71 ± 0.437", "unit": "µM"},
      {"measurement": "remaining activity at 10 µM", "setting": "MAO-B", "result": "14.5 ± 1.14", "unit": "%"},
      {"measurement": "IC50", "setting": "hMAO-A", "result": "5.064 ± 0.006", "unit": "µM"},
      {"measurement": "remaining activity at 10 µM", "setting": "hMAO-A", "result": "16.6 ± 9.23", "unit": "%"}
    ]}
  ]
}
